Test results as given in patent EP0933350A1, “Tricyclic retinoids, methods for their production and use” (LIGAND PHARMACEUTICALS INCORPORATED, priority 1994, dated 1996).
pEC50, pIC50, pKd: −log10 of the molar value.

How the values were obtained:
RXRβ = molecular target: T1, RXRβ (Mus musculus, UniProt P28704); test: co-transfection assay (RAR/RXR agonist activity, luciferase reporter in CV-1 cells); assay type: cell-based; details: read-out: RXRβ Pot
T1 sequence (P28704 1-520): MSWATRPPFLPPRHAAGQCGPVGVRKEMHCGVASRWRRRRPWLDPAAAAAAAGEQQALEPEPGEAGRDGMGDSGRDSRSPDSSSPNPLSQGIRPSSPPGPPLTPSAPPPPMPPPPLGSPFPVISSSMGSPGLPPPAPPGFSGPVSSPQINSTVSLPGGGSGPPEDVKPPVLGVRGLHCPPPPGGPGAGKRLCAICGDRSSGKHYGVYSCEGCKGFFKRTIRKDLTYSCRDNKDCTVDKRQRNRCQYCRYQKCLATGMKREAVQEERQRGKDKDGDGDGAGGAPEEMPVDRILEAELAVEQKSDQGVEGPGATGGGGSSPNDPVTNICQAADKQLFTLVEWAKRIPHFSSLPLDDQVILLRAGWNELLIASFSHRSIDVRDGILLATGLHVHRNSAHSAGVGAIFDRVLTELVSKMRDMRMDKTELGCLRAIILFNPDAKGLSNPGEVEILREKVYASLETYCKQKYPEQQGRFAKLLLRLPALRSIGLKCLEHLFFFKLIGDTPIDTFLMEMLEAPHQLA

RARγ = molecular target: T2, RARγ (Homo sapiens, UniProt P13631); test: competitive binding of tritiated retinoids to retinoid receptors; details: competition with tritiated retinoid, Cheng-Prussof equation
T2 sequence (P13631 1-454): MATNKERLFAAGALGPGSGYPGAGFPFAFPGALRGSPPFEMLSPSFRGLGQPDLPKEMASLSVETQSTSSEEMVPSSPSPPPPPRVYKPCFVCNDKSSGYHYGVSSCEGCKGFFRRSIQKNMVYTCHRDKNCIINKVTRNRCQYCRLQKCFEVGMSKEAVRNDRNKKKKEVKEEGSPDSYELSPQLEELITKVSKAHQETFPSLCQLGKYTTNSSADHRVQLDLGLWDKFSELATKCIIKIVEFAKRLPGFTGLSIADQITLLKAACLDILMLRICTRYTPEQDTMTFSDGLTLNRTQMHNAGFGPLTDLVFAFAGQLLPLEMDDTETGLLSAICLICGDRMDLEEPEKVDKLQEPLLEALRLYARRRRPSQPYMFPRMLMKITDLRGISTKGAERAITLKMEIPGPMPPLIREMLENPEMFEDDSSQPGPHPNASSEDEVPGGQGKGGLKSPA

RARα [1] = molecular target: T3, RARα (Homo sapiens, UniProt P10276); test: co-transfection assay (RAR/RXR agonist activity, luciferase reporter in CV-1 cells); assay type: cell-based; details: read-out: RARα Pot
T3 sequence (P10276 1-462): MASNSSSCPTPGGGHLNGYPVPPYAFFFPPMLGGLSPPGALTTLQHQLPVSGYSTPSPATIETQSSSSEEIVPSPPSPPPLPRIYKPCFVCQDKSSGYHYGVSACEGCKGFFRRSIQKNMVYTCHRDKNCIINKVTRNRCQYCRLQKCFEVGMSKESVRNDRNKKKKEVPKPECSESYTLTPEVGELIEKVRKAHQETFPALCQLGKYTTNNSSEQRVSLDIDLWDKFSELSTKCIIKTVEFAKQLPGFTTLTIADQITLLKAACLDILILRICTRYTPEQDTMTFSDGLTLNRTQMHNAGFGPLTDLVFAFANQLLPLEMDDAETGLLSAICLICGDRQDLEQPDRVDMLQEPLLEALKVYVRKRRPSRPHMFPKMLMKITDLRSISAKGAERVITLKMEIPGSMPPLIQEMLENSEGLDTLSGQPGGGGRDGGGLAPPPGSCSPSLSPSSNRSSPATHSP

RXRγ = molecular target: T4, RXRγ (Mus musculus, UniProt P28705); test: as above; assay type: cell-based; details: read-out: RXRγ Pot
T4 sequence (P28705 1-463): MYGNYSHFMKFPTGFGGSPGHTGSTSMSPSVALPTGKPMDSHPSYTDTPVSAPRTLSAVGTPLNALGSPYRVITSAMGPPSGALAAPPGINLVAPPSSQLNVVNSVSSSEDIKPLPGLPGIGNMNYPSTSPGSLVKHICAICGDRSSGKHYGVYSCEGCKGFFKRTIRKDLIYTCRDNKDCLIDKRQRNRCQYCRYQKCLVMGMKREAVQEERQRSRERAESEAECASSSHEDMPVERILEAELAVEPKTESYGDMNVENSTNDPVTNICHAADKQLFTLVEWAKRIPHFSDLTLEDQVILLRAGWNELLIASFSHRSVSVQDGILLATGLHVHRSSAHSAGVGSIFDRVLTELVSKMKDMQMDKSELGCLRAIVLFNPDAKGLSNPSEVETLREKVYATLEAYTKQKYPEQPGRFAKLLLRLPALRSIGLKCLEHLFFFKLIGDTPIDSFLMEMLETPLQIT

RARβ = molecular target: T5, RARβ (Homo sapiens, UniProt P10826); test: competitive binding of tritiated retinoids to retinoid receptors; details: competition with tritiated retinoid, Cheng-Prussof equation
T5 sequence (P10826 1-455): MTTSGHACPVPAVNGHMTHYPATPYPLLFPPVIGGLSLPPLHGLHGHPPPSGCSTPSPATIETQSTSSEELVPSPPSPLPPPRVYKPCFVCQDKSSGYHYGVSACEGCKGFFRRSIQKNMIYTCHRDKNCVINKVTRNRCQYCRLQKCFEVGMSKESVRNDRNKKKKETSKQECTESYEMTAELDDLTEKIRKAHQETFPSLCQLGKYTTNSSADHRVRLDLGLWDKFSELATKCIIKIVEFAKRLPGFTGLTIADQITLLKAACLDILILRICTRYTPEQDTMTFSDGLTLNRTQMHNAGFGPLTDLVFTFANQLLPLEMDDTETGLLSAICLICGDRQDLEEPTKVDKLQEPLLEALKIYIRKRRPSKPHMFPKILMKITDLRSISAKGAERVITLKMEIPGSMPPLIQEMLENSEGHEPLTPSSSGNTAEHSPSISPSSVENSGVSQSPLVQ

RARα [2] = molecular target: T3, RARα; test: as above; details: competition with tritiated retinoid, Cheng-Prussof equation
AML-193 cell line = test: viability (tetrazolium dye, mitochondrial function); assay type: cell-based; details: Homo sapiens, 96 hours, read-out: MTS IC50

| Structure (SMILES) | pEC50 (RXRβ) | pKd (RARγ) | pEC50 (RARα [1]) | pEC50 (RXRγ) | pKd (RARβ) | pKd (RARα [2]) | pIC50 (AML-193 cell line) |
| --- | --- | --- | --- | --- | --- | --- | --- |
| CC(/C=C/C=C1\CCCc2cc3c(cc21)C(C)(C)CCC3(C)C)=C\C(=O)O [Compound 109b, (2E,4E)-3-Methyl-6-[(E)-3,4,5,6,7,8-hexahydro-5,5,8,8-tetramethyl-2H-anthracen-1-ylidene]hexa-2,4-dienoic acid] | 7.19 | 6.55 | 7.55 | 5.64 | 7.17 | 7.48 | 6.00 |
| CC(/C=C/CN1CCCCc2cc3c(cc21)C(C)(C)CCC3(C)C)=C\C(=O)O [Compound 138b, (2E,4E)-3-Methyl-6-[7,7,10,10-tetramethyl-2,3,4,5,7,8,9,10-octahydronaphtho[2,3-6]azepinyl)hexa-2,4-dienoic acid] | 6.69 | < 6.00 | < 5.00 | 6.52 | < 6.00 | < 6.00 | – |
| CC(/C=C/C=C1/CCOc2cc3c(cc21)C(C)(C)CCC3(C)C)=C\C(=O)O [Compound 144b] | 7.35 | 6.31 | 7.85 | 7.40 | 6.50 | 6.84 | 6.00 |
| CC(/C=C/C=C1/CCCc2cc3c(cc21)C(C)(C)CCC3(C)C)=C\C(=O)O [Compound 101b, (2E,4E)-3-Methyl-6-[(Z)-3,4,5,6,7,8-hexahydro-5,5,8,8-tetramethyl-2H-anthracen-1-ylidene]hexa-2,4-dienoic acid] | 7.26 | 6.27 | 7.49 | 7.39 | 6.52 | 6.65 | 6.00 |
| CC(/C=C/C=C1\CCOc2cc3c(cc21)C(C)(C)CCC3(C)C)=C\C(=O)O [Compound 119b, (2E,4E)-3-Methyl-6-[(E)-2,3,6,7,8,9-hexahydro-6,6,9,9-tetramethylbenzo[g]chromen-4-ylidene]hexa-2,4-dienoic acid] | 5.94 | 7.06 | 7.70 | 6.13 | 7.30 | 7.62 | 6.00 |
